Experimental data from patent US20240317748A1, “CARBONYL SUBSTITUTED DIAZASPIRO COMPOUNDS AND ITS USE” (BIONOVA PHARMACEUTICALS (SHANGHAI) LIMITED, priority 2021, published 2024).

Key:
MV-4-11 cells = test: Cell proliferation assay (CellTiter-Glo), MV-4-11; type: cell-based, human; details: Homo sapiens, MV4-11, 96 h; MV-4-11 (MLL-AF4), 4 days incubation; read-out: Cell antiproliferation assay MV-4-11 IC50
Experimental: The antiproliferative activity of test compounds was assessed in human leukemia cell lines. The cell line MV4-11, MOLM13 and OCI-AML3, which expresses the MLL fusion protein MLL-AF4, MLL-AF9 and carry the NPM1c gene mutation, respectively, were tested. HL-60 was used as a control cell line containing two MLL wildtype alleles in order to exclude compounds that display general cytotoxic effect. MV4-11 cells were cultured in IMDM supplemented with 10% FBS, MOLM13 and OCI-AML3 cells were cultured in RPMI1640 supplemented with 20% FBS, and HL-60 cells were cultured in IMDM supplemented with 20% FBS. Corresponding cells (MV4-11, MOLM13, OCI-AML3 or HL-60 cell line) were seeded in 100 uL medium per well in 96-well plate (white wall with clear bottom, tissue culture treated, Corning, Cat. No. CLS3903; Lot.No. 30419025). Plates were placed in the CO2 incubator overnight. Compounds solution (2 mM starting, 4-fold serial dilution) were prepared and added to the wells containing 100 μL of the culture medium with HPD300 according to the plate map and centrifuge at 1000 rpm for 1 minutes (200-fold dilution totally). MV4-11, MOLM13, OCI-AML3 and HL-60 cells were incubated with the compounds for 4, 12, 5 and 4 days, respectively, under 5% CO2 at 37° C., respectively. 100 μL of CellTiter-Glo reagent (Promega, Cat. No. G7573, Lot. No. 0000416710) was added to the assay plate by Multidrop Combi instrument, contents were mixed for 10 minutes on an orbital shaker to induce cell lysis. After incubation at room temperature for 10 mins, clear bottom with white back seal was pasted and luminescence with Envision was read.

Menin-MLL1 = target: T1, Menin-MLL1 (Homo sapiens, UniProt O00255); test: Menin-MLL1 inhibition assay (fluorescence polarization, Menin protein + FAM-MLL peptide); type: binding; details: Menin (2-610) isoform 2, FAM-labelled MLL peptide, mP readout; read-out: Biochemical assay Menin-MLL1 IC50
T1 construct: Menin (2-610) isform2; purchased ChemPartner 2020111101
T1 sequence (O00255 2-610): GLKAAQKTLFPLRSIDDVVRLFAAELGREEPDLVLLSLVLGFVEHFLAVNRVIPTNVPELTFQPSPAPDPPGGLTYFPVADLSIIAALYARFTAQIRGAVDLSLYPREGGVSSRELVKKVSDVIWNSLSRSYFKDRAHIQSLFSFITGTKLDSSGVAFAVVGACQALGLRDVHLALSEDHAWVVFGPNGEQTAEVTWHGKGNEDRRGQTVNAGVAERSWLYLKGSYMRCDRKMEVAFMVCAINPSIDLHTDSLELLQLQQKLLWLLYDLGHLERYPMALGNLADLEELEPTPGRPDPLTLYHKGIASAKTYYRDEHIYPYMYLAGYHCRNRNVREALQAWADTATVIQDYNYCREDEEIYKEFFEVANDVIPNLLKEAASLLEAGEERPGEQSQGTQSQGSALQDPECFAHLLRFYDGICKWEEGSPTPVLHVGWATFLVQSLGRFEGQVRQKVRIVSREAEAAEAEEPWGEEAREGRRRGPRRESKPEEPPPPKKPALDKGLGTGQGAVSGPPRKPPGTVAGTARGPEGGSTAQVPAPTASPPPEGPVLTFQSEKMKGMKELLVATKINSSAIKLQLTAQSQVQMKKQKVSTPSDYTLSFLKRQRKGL
Experimental: 1× assay bu9ffer (Tris 7.5 50 mM, NaCl 50 mM, DTT 1 mM, Tween-20 0.01%) was prepared and test compounds solution (10 mM in DMSO, Sigma, Cat. No. 34869) were transferred to assay plate (384-well plate, Perkin Elmer, Cat. No. 6007279) by Echo. The final fraction of DMSO is 1%. 20 nM of Menin protein (Menin (2-610) isform2, ChemPartner, Cat. No. 2020111101) in 1× assay buffer was added to prepare 2× enzyme solution. Then 10 nM of MLL-peptide (Ac-SRWRFPARPGTGRR-Ahx-Ahx-K(FAM)-NH2, GL Biochem (Shanghai)), Cat. No. 833831/202009220104) in 1× assay buffer was added to prepare 2× substrate solution. 10 μL of 2× enzyme solution was transferred to assay plate or 10 μL of 1× assay buffer for low control group. 10 μL of 2× substrate solution was added to each well to start reaction. mP data on Envision (Ex480/Em535(s), Em535(p)) was collected.
Compound potencies were determined by first calculating % inhibition at each compound concentration according to equation 1:
Inhibition %=(Max−Signal)/(Max−Min)*100 (Equation 1)
Y=Bottom+(Top-Bottom)/(1+(IC50/X)[…]), where Y is % inhibition and X is compound concentration (Equation 2)

Structure (SMILES) | IC50 (MV-4-11 cells) | IC50 (Menin-MLL1)
CCN(C(=O)c1cc(F)ccc1Oc1cncnc1N1CC2(CCN(C(=O)[C@H]3NCC[C@@H]3O)CC2)C1)C(C)C [Example 8] | 332 nM | 5.5 nM
CCN(C(=O)c1cc(F)ccc1Oc1nncnc1N1CC2(CCN(C(=O)[C@@H]3NCC[C@H]3CF)CC2)C1)C(C)C [Example 89] | 1010 nM | 24 nM
CCN(C(=O)c1cc(F)ccc1Oc1nncnc1N1CC2(CCN(C(=O)[C@@H]3NCC[C@H]3C(F)F)CC2)C1)C(C)C [Example 99b, 2-((5-(7-((2R,3R)-3-(difluoromethyl)pyrrolidine-2-carbonyl)-2,7-diazaspiro[3.5]nonan-2-yl)-1,2,4-triazin-6-yl)oxy)-N-ethyl-5-fluoro-N-isopropylbenzamide] | 1930 nM | 43 nM
CCN(C(=O)c1cc(F)ccc1Oc1nncnc1N1CC2(CCN(C(=O)[C@H]3NC[C@H](C)[C@@H]3C)CC2)C1)C(C)C [Example 92] | 18.8 nM | 8 nM
CCN(C(=O)c1cc(F)ccc1Oc1cncnc1N1CC2(CCN(C(=O)[C@@]3(C)CCCN3)CC2)C1)C(C)C [Example 29] | 271 nM | 7 nM
CC[C@@H]1CCN[C@H]1C(=O)N1CCC2(CC1)CN(c1ncnnc1Oc1ccc(F)cc1C(=O)N(CC)C(C)C)C2 [Example 71] | 1250 nM | 16 nM
CCN(C(=O)c1cc(F)ccc1Oc1cncnc1N1CC2(CCN(C(=O)[C@@H]3C[C@H]4C[C@H]4N3)CC2)C1)C(C)C [Example 32] | 75.4 nM | 6.5 nM
CCN(C(=O)c1cc(F)ccc1Oc1cncnc1N1CC2(CCN(C(=O)[C@@H]3C[C@]4(CO)CC4N3)CC2)C1)C(C)C (stereo partly shown) [Example 11] | 128 nM | 6.3 nM
CC(C)N(CCO)C(=O)c1cc(F)ccc1Oc1nncnc1N1CC2(CCN(C(=O)[C@H]3NC[C@@H]4CCC[C@@H]43)CC2)C1 [Example 104] | 26.7 nM | 4.5 nM
CCN(C(=O)c1cc(F)ccc1Oc1cncnc1N1CC2(CCN(C(=O)[C@@H]3CC[C@@H](F)CN3)CC2)C1)C(C)C [Example 25] | 232 nM | 8.4 nM
CCN(C(=O)c1cc(F)ccc1Oc1nncnc1N1CC2(CCN(C(=O)[C@@H]3NC[C@@H]4CC(F)(F)C[C@@H]43)CC2)C1)C(C)C (single isomer, unassigned) [Example 98b] | 2640 nM | 22 nM
CC(C)N(CC(F)F)C(=O)c1cc(F)ccc1Oc1cncnc1N1CC2(CCN(C(=O)[C@@H]3C[C@@H](F)CN3)CC2)C1 [Example 45] | 36.1 nM | 3.4 nM
CCN(C(=O)c1cc(F)ccc1Oc1cncnc1N1CC2(CCN(C(=O)[C@@H]3C[C@@]4(C)C[C@H]4N3)CC2)C1)C(C)C [Example 9] | 40.7 nM | 12.9 nM
CCN(C(=O)c1cc(F)ccc1Oc1nncnc1N1CC2(CCN(C(=O)[C@H]3NCC[C@@H]3C3CC3)CC2)C1)C(C)C [Example 100a] | 6.9 nM | 2.7 nM
CCN(C(=O)c1cc(F)ccc1Oc1cncnc1N1CC2(CCN(C(=O)[C@@H]3C[C@@H](c4ccccc4)CN3)CC2)C1)C(C)C [Example 48] | 144 nM | 11.4 nM
CCN(C(=O)c1cc(F)ccc1Oc1cncnc1N1CC2(CCN(C(=O)[C@@H]3C[C@H](F)CN3)CC2)C1)C(C)C [Example 3] | 329 nM | 20.9 nM
COc1ccc(-c2cc(F)ccc2Oc2nncnc2N2CC3(CCN(C(=O)[C@H]4NC[C@@H]5CCC[C@@H]54)CC3)C2)c(C2CC2)n1 [Example 107] | 2.4 nM | 2.4 nM
C[C@H]1COCCN1C(=O)c1cc(F)ccc1Oc1cncnc1N1CC2(CCN(C(=O)[C@@H]3C[C@@H](F)CN3)CC2)C1 [Example 53] | 786 nM | 10.9 nM
CCN(C(=O)c1cc(F)ccc1Oc1cncnc1N1CC2(CCN(C(=O)[C@@H]3C[C@]4(C)C[C@@H]4N3)CC2)C1)C(C)C [Example 6] | 33.8 nM | 6 nM
N#Cc1ccc(-c2cc(F)ccc2Oc2nncnc2N2CC3(CCN(C(=O)[C@H]4NC[C@@H]5C[C@@H]54)CC3)C2)c(C2CC2)n1 [Example 94] | 11.8 nM | 3.4 nM
